Assay results: paper PMC6718442, “11β-Hydroxysteroid dehydrogenases control access of 7β,27-dihydroxycholesterol to retinoid-related orphan receptor γ” (Journal of Lipid Research, 2019)

What was measured:
[1] = target: T1, mineralocorticoid receptor (MR) (Homo sapiens, UniProt P80365); test: Mineralocorticoid receptor reporter gene assay in HEK-293 cells stably expressing 11β-HSD2; format: cell-based; details: without cortisol, data not shown
T1 sequence (P80365 1-405): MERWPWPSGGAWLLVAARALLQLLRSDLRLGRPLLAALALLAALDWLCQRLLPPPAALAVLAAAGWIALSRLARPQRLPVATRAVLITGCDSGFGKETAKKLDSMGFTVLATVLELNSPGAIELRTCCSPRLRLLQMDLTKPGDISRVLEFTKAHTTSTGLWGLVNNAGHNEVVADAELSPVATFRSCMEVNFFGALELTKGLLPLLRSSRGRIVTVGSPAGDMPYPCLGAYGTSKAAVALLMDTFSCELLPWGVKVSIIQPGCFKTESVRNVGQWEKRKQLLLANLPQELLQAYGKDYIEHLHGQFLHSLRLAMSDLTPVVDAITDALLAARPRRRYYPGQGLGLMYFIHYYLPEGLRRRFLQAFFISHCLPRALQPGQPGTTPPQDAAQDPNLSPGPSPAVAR
T1 sequence (P08235 1-984 partner): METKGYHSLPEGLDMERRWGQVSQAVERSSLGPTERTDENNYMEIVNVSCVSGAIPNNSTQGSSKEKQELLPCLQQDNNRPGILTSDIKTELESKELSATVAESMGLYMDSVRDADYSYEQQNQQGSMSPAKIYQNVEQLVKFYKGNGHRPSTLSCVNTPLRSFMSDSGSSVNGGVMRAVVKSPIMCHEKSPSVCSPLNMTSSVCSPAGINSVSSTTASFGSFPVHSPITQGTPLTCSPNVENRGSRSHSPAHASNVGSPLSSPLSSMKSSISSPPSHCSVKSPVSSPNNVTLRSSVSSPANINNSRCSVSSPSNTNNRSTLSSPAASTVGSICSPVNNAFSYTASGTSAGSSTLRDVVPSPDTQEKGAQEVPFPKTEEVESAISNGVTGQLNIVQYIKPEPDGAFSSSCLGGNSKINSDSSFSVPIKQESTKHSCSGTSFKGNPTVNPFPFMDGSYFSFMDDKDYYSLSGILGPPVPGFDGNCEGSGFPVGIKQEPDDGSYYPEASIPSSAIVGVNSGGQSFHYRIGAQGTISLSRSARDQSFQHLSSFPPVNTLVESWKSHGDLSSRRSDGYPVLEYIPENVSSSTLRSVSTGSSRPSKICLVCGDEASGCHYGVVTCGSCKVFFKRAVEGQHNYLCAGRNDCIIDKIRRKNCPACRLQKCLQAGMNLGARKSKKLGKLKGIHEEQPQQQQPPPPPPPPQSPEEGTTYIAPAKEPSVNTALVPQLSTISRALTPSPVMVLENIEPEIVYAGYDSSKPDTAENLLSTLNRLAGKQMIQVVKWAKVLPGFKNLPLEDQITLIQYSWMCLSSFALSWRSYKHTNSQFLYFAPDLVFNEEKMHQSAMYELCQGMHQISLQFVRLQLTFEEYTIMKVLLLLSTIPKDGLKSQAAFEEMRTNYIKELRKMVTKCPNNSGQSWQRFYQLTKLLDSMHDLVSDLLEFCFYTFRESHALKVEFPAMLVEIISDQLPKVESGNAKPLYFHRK
Method: Then, the cells were transiently transfected with the mineralocorticoid receptor (MR) (300 ng/well), a [NT] luciferase reporter (450 ng/well), and a pCMV-lacZ β-galactosidase transfection control (25 ng/well) using the calcium phosphate precipitation method. At 6 h post-transfection, the cells were washed with DMEM and incubated for another 18 h before replacing the medium with cDMEM. The cells were cultured for another 2 h at 37°C. […] The cells were lysed with Tropix lysis solution (Applied Biosystems, Foster City, CA) containing 0.5 mM of dithiothreitol and frozen at -80°C for at least 20 min.

[2] = target: T2, mouse 11β-hsd2 (Mus musculus, UniProt P51661); test: 11β-hsd2 activity in mouse kidney homogenates (corticosterone to 11-dehydrocorticosterone); format: biochemical
T2 construct: The determination of 11β-hsd2 activity in mouse kidney homogenates; from tissue; host or cells: kidney of adult male C57BL6 mice
T2 sequence (P51661 1-386): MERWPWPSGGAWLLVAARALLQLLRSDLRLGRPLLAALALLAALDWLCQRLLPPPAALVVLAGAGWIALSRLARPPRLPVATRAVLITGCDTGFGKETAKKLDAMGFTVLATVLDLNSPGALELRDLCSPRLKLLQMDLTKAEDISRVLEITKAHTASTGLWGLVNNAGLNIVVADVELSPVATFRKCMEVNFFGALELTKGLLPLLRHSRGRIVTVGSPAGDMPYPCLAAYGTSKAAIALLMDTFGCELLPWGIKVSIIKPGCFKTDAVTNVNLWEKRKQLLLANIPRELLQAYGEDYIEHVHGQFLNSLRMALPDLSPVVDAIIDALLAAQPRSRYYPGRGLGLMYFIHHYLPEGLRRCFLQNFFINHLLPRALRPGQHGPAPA
Method: The determination of 11β-hsd2 activity in mouse kidney homogenates was conducted as described earlier ([41]). Briefly, for homogenate preparation, kidneys from adult male mice (C57BL6) were snap-frozen and sonicated in homogenization buffer [250 mM sucrose, 10 mM HEPES (pH 7.4); 900 μl for 100 mg of tissue]. Then, the homogenate was centrifuged (2,000 g, 4°C for 10 min) and the total protein concentration determined. The enzymatic reaction was assessed using 0.075 mg/ml total protein of the kidney homogenate in incubation buffer [300 mM NaCl, 20 mM Tris/HCl, 1 mM EDTA, 10% glycerol (pH 7.7)], different concentrations of oxysterols, 50 nM of corticosterone (containing 50 nCi [1,2,6,7-^3H] corticosterone), and 500 μM NAD^+ at 37°C for 20 min. Corticosterone and 11-dehydrocorticosterone were separated using TLC. Substrate conversion was determined by scintillation counting. Data (mean ± SD) were normalized to vehicle control (DMSO) and obtained from at least three independent experiments.

Compound	Stimulation of MR activity by the substance itself (in words) [1]	IC50 ([2]; 50 nM corticosterone, 20 min, 37°C, read-out: IC50, mouse 11β-hsd2 activity (corticosterone to 11-DHC)) [µM]	Inhibition of mouse 11β-hsd2 activity (in words) [2]
CC(CO)CCC[C@@H](C)[C@H]1CC[C@H]2[C@@H]3C(=O)C=C4C[C@@H](O)CC[C@]4(C)[C@H]3CC[C@]12C (some centres unmarked) [7k27OHC, 7-keto,27-hydroxycholesterol]	neither 7β27OHC nor 7k27OHC was able to stimulate MR activity by itself	1.65 ± 0.4	–
C[C@@H](CO)CCC[C@@H](C)[C@H]1CC[C@H]2[C@@H]3[C@H](O)C=C4C[C@@H](O)CC[C@]4(C)[C@H]3CC[C@]12C [7α27OHC]	–	–	Neither 7β27OHC nor 7α27OHC inhibited
CC(CO)CCC[C@@H](C)[C@H]1CC[C@H]2[C@@H]3[C@@H](O)C=C4C[C@@H](O)CC[C@]4(C)[C@H]3CC[C@]12C (stereo partly drawn) [7β27OHC, 7β,27-dihydroxycholesterol]	neither 7β27OHC nor 7k27OHC was able to stimulate MR activity by itself	–	Neither 7β27OHC nor 7α27OHC inhibited
